How the values were obtained:
[1] = tested on: hyperactivity; experiment: Open field test of methamphetamine-induced hyperactivity; format: in vivo, mouse; conditions: open field 20 min after methamphetamine 4.0 mg/kg
Method: Before methamphetamine injection into each animal model, an open field test was conducted for 20 min to measure the activity of the animal model, which was used as a baseline.
4.0 mg/kg of methamphetamine was administered to the control group (Comparative group 1) and an open field test was again conducted for 20 min to measure the activity of the animal model.
4.0 mg/kg of methamphetamine was administered to the drug addiction animal model (MA) (Comparative group 2) and an open field test was again conducted for 20 min to measure the activity of the animal model.
Finally, the activity of each group was compared with the baseline and the activity increase was expressed as a percentage relative to the baseline.

[2] = tested on: SYNCRIP; experiment: SYNCRIP expression in brain striatum by qPCR; conditions: drug addiction animal model (MA) vs control group
[3] = tested on: egocentric spatial learning; experiment: Water cross maze test of egocentric spatial learning; conditions: probe test after 3 days learning; lentivirus injected into striatum after drug addiction
[4] = tested on: SYNCRIP; experiment: SYNCRIP expression in brain striatum by Western blotting; conditions: drug addiction animal model (MA) vs control group
[5] = tested on: miR-137; experiment: Serum miR-137 (qPCR) in mild drug-addicted animal model with striatal SYNCRIP overexpression; conditions: mild drug addiction: methamphetamine 1.0 mg/kg i.p. once every other day for 2 weeks; lentivirus into striatum 4 weeks before
[6] = tested on: miR-137; experiment: miR-137 expression (qPCR) in striatum and serum of methamphetamine drug addiction animal model; conditions: drug addiction animal model (MA) vs control group, gradual ramp-up protocol, one week withdrawal
[7] = tested on: miR-137; experiment: Serum miR-137 (qPCR) in drug-addicted (gradual ramp-up) animal model with striatal SYNCRIP overexpression; conditions: gradual ramp-up methamphetamine protocol, one week withdrawal; lentivirus into striatum 4 weeks before

Q: `CN[C@@H](C)Cc1ccccc1` [methamphetamine] was tested. Which “hyperactivity (activity increase relative to baseline)” value [1] did it give?
A: significantly increased

Q: And the “expression level of SYNCRIP in brain striatum (qPCR)” value [2]?
A: decreased but was significantly higher

Q: What about the “egocentric spatial learning (percent of mice)” value [3] of the same compound?
A: abnormally enhanced

Q: What about the “expression level of SYNCRIP in brain striatum (Western blotting)” value [4] of the same compound?
A: decreased to a significantly lower level

Q: What about the “expression level of serum miR-137” value [5] of the same compound?
A: significantly low

Q: What about the “expression level of miR-137 in serum” value ([6]; serum) of the same compound?
A: significantly low

Q: What about the “expression level of miR-137 in striatum” value ([6]; striatum) of the same compound?
A: significantly high

Q: What about the “expression level of miR-137 in serum” value [7] of the same compound?
A: significantly reduced

— patent publication US20240158851A1, “METHOD FOR […] ADDICTION, METHOD FOR SCREENING THERAPEUTIC AGENT FOR DRUG ADDICTION AND PHARMACEUTICAL COMPOSITION FOR PREVENTING OR TREATING DRUG ADDICTION” (KOREA INSTITUTE OF SCIENCE AND TECHNOLOGY, priority 2020, published 2024)
